Experimental data reported in US11780893B2, “Kv1.3 blockers” (Zealand Pharma A/S, priority 2019, dated 2023).
Read-outs that look alike come from different tables or passages of the source. Bridge positions count the residues as written; N and C are the ends. Square brackets hold non-standard residues; d marks the D form. Peptide text beside a SMILES is read from it. Phe(4-Me) = Cc1ccc(C[C@H](N)C(=O)O)cc1; Nle = CCCC[C@H](N)C(=O)O; Abu = CC[C@H](N)C(=O)O

Key:
[1] = target: T1, human Kv1.3 voltage-gated K+ channel (Homo sapiens, UniProt P22001); test: cell-based; conditions: inhibition of thallium flux, CHO-DUKX cells with human Kv1.3; read-out: IC50
T1 construct: host or cells: CHO-DUKX

Rat whole blood = Rat whole blood (Rattus norvegicus, UniProt P15384)
[2] = inhibition of IL-17A release, thapsigargin, 24 Hr, at least 2 replicates

Sequence of Rat whole blood (P15384 whole entry): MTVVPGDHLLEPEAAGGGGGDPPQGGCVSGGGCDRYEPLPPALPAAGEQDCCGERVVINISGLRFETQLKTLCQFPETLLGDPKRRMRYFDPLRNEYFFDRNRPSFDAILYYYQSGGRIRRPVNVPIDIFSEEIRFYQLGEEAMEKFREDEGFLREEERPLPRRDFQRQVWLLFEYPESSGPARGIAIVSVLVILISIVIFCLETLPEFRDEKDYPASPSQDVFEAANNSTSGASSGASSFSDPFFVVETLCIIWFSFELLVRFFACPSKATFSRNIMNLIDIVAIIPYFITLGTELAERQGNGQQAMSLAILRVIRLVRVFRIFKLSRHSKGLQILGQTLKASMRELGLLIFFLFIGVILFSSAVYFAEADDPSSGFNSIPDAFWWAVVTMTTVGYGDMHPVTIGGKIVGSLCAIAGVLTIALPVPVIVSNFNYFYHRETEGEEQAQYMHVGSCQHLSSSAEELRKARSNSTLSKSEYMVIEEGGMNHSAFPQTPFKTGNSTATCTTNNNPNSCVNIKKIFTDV
T1 sequence (P22001 whole entry): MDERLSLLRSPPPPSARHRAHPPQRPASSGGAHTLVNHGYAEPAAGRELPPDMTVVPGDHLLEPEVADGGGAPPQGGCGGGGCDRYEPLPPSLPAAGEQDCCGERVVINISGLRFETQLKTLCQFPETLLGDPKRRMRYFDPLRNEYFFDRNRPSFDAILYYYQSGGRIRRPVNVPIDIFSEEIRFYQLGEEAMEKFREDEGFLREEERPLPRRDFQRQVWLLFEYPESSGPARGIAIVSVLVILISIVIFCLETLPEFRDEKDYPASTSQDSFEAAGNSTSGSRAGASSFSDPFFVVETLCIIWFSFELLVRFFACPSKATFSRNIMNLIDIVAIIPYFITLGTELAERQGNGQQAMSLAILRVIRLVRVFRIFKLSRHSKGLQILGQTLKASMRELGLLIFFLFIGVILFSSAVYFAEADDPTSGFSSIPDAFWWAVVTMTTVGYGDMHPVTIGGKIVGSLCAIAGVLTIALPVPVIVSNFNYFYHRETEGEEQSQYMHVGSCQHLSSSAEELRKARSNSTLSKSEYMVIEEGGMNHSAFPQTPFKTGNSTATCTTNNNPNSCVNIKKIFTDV

With CCCC[C@H](NC(=O)[C@H](CC(=O)O)NC(=O)[C@H](CCCC)NC(=O)[C@@H](N)CO)C(=O)N[C@@H](CCCNC(=N)N)C(=O)N[C@H]1CSSC[C@@H]2NC(=O)[C@H](CCCCN)NC(=O)CNC(=O)[C@H](Cc3ccccc3)NC(=O)[C@H]([C@@H](C)CC)NC(=O)[C@H](CO)NC(=O)CNC(=O)[C@H]([C@@H](C)CC)NC(=O)[C@H](C)NC(=O)[C@H](CCCCN)NC(=O)[C@H](CC(C)C)NC(=O)[C@@H]3CSSC[C@@H](C(=O)N[C@@H](Cc4ccc(O)cc4)C(=O)N4CCC[C@H]4C(=O)N[C@@H](CCCNC(=N)N)C(N)=O)NC(=O)[C@H](CCCCN)NC(=O)[C@H](CSSC[C@H](NC(=O)[C@H](CCC(=O)O)NC(=O)[C@H](C(C)C)NC(=O)[C@H](CC)NC(=O)[C@H](C)NC(=O)[C@H](CO)NC1=O)C(=O)N[C@@H](CCCCN)C(=O)N[C@@H](CCC(N)=O)C(=O)N[C@@H](CCCCN)C(=O)N3)NC(=O)[C@H](CCCCN)NC(=O)[C@H](CCCCN)NC(=O)[C@H](CC(N)=O)NC(=O)[C@H](CCSC)NC2=O [Compound 68] (H-S[Nle]D[Nle]RCSA[Abu]VECKQKCLKAIGSIFGKCMNKKCKCYPR-NH2; disulfide 6-27, 12-32, 16-34) the IC50 [1] was 200 pM, the IC50 (Rat whole blood) was at most 1000 pM and the IC50 (Rat whole blood; [2]) was 930 pM.
In the case of CCCC[C@@H]1NC(=O)[C@@H]2CSSC[C@H](N)C(=O)N[C@@H](CO)C(=O)N[C@@H](C)C(=O)N[C@@H](CO)C(=O)N[C@@H](C(C)C)C(=O)N[C@@H](CCC(=O)O)C(=O)N[C@H]3CSSC[C@H](NC(=O)[C@H](CCCCN)NC(=O)[C@H](CCCCN)NC(=O)[C@H](CC(N)=O)NC1=O)C(=O)N[C@@H](CCCCN)C(=O)N[C@H]1CSSC[C@H](NC(=O)[C@H](CCCCN)NC(=O)[C@H](CCC(N)=O)NC(=O)[C@H](CCCCN)NC3=O)C(=O)N[C@@H](CC(C)C)C(=O)N[C@@H](CCCCN)C(=O)N[C@@H](C)C(=O)N[C@@H]([C@@H](C)CC)C(=O)NCC(=O)N[C@@H](CSSC[C@@H](C(N)=O)NC(=O)[C@@H]3CCCN3C(=O)[C@H](Cc3ccc(O)cc3)NC1=O)C(=O)N[C@@H]([C@@H](C)CC)C(=O)N[C@@H](Cc1ccccc1)C(=O)NCC(=O)N[C@@H](CCCCN)C(=O)N2 [Compound 86] (H-CSASVECKQKCLKAIGCIFGKC[Nle]NKKCKCYPC-NH2; disulfide 1-22, 7-27, 11-29, 17-32), the IC50 [1] is reported as 200 pM and the IC50 (Rat whole blood; [2]) is reported as 1100 pM.
Compound CCCC[C@H](NC(=O)[C@H](CC(=O)O)NC(=O)[C@H](CCCC)NC(=O)[C@@H](N)CO)C(=O)N[C@@H](CCCNC(=N)N)C(=O)N[C@H]1CSSC[C@@H]2NC(=O)[C@H](CCCCN)NC(=O)CNC(=O)[C@H](Cc3ccccc3)NC(=O)[C@H]([C@@H](C)CC)NC(=O)[C@H](CO)NC(=O)CNC(=O)[C@H]([C@@H](C)CC)NC(=O)[C@H](C)NC(=O)[C@H](CCCCN)NC(=O)[C@H](CC(C)C)NC(=O)[C@@H]3CSSC[C@@H](C(=O)N[C@@H](Cc4ccc(C)cc4)C(=O)N4CCC[C@H]4C(=O)N[C@@H](CCCNC(=N)N)C(N)=O)NC(=O)[C@H](CCCCN)NC(=O)[C@H](CSSC[C@H](NC(=O)[C@H](CCC(=O)O)NC(=O)[C@H](C(C)C)NC(=O)[C@H](CO)NC(=O)[C@H](C)NC(=O)[C@H](CO)NC1=O)C(=O)N[C@@H](CCCCN)C(=O)N[C@@H](CCC(N)=O)C(=O)N[C@@H](CCCCN)C(=O)N3)NC(=O)[C@H](CCCCN)NC(=O)[C@H](CCCCN)NC(=O)[C@H](CC(N)=O)NC(=O)[C@H](CCSC)NC2=O [Compound 93] (H-S[Nle]D[Nle]RCSASVECKQKCLKAIGSIFGKCMNKKCKC[Phe(4-Me)]PR-NH2; disulfide 6-27, 12-32, 16-34) has an IC50 [1] of 130 pM and an IC50 (Rat whole blood; [2]) of 540 pM.
With CCCC[C@@H]1NC(=O)[C@@H]2CSSC[C@H](NC(=O)[C@H](CCCNC(=N)N)NC(=O)[C@H](CCCC)NC(=O)[C@H](CC(=O)O)NC(=O)[C@H](CCCC)NC(=O)[C@@H](N)CO)C(=O)N[C@@H](CO)C(=O)N[C@@H](C)C(=O)N[C@@H](CO)C(=O)N[C@@H](C(C)C)C(=O)N[C@@H](CCC(=O)O)C(=O)N[C@H]3CSSC[C@H](NC(=O)[C@H](CCCCN)NC(=O)[C@H](CCCCN)NC(=O)[C@H](CC(N)=O)NC1=O)C(=O)N[C@@H](CCCCN)C(=O)N[C@H]1CSSC[C@H](NC(=O)[C@H](CCCCN)NC(=O)[C@H](CCC(N)=O)NC(=O)[C@H](CCCCN)NC3=O)C(=O)N[C@@H](CC(C)C)C(=O)N[C@@H](C)C(=O)N[C@@H](C)C(=O)N[C@@H]([C@@H](C)CC)C(=O)NCC(=O)N[C@@H](CSSC[C@@H](C(N)=O)NC(=O)[C@@H]3CCCN3C(=O)[C@H](Cc3ccc(O)cc3)NC1=O)C(=O)N[C@@H]([C@@H](C)CC)C(=O)N[C@@H](Cc1ccccc1)C(=O)NCC(=O)N[C@@H](CCCCN)C(=O)N2 [Compound 87] (H-S[Nle]D[Nle]RCSASVECKQKCLAAIGCIFGKC[Nle]NKKCKCYPC-NH2; disulfide 6-27, 12-32, 16-34, 22-37) the IC50 [1] was 100 pM, the IC50 (Rat whole blood) was at most 1000 pM and the IC50 (Rat whole blood; [2]) was 730 pM.
CCCC[C@@H]1NC(=O)[C@@H]2CSSC[C@H](NC(=O)[C@H](CCCNC(=N)N)NC(=O)[C@H](CCCC)NC(=O)[C@H](CC(=O)O)NC(=O)[C@H](CCCC)NC(=O)[C@@H](N)CC(N)=O)C(=O)N[C@@H](CO)C(=O)N[C@@H](C)C(=O)N[C@@H](CO)C(=O)N[C@@H](C(C)C)C(=O)N[C@@H](CCC(=O)O)C(=O)N[C@H]3CSSC[C@H](NC(=O)[C@H](CCCCN)NC(=O)[C@H](CCCCN)NC(=O)[C@H](CC(N)=O)NC1=O)C(=O)N[C@@H](CCCCN)C(=O)N[C@H](C(=O)N[C@@H](Cc1ccc(O)cc1)C(=O)N1CCC[C@H]1C(=O)N[C@@H](CCCNC(=N)N)C(N)=O)CSSC[C@H](NC(=O)[C@H](CCCCN)NC(=O)[C@H](CCC(N)=O)NC(=O)[C@H](CCC(N)=O)NC3=O)C(=O)N[C@@H](CC(C)C)C(=O)N[C@@H](CCCCN)C(=O)N[C@@H](C)C(=O)N[C@@H]([C@@H](C)CC)C(=O)NCC(=O)N[C@@H](CO)C(=O)N[C@@H]([C@@H](C)CC)C(=O)N[C@@H](Cc1ccccc1)C(=O)NCC(=O)N[C@@H](CCCCN)C(=O)N2 [Compound 44] (H-N[Nle]D[Nle]RCSASVECQQKCLKAIGSIFGKC[Nle]NKKCKCYPR-NH2; disulfide 6-27, 12-32, 16-34) showed an IC50 [1] of 130 pM and an IC50 (Rat whole blood; [2]) of 1100 pM.
Work on CC[C@H](C)[C@@H]1NC(=O)[C@H](C)NC(=O)[C@H](CCCCN)NC(=O)[C@H](CC(C)C)NC(=O)[C@@H]2CSSC[C@@H](C(=O)N[C@@H](Cc3ccc(O)cc3)C(=O)N3CCC[C@H]3C(=O)N[C@@H](CCCNC(=N)N)C(N)=O)NC(=O)[C@H](C(C)C)NC(=O)[C@@H]3CSSC[C@H](NC(=O)[C@H](CCC(=O)O)NC(=O)[C@H](C(C)C)NC(=O)[C@H](CO)NC(=O)[C@H](C)NC(=O)[C@H](CO)NC(=O)[C@@H](NC(=O)[C@H](CCCNC(=N)N)NC(=O)[C@H](CCSC)NC(=O)[C@H](CC(=O)O)NC(=O)[C@H](CCSC)NC(=O)[C@@H](N)CC(N)=O)CSSC[C@H](NC(=O)[C@H](CCCCN)NC(=O)CNC(=O)[C@H](Cc4ccccc4)NC(=O)[C@H]([C@@H](C)CC)NC(=O)[C@H](CO)NC(=O)CNC1=O)C(=O)N[C@@H](CCSC)C(=O)N[C@@H](CC(N)=O)C(=O)N[C@@H](CCCCN)C(=O)N[C@@H](CCCCN)C(=O)N3)C(=O)N[C@@H](CCCCN)C(=O)N[C@@H](CCC(N)=O)C(=O)N[C@@H](CCCCN)C(=O)N2 [Compound 38] (H-NMDMRCSASVECKQKCLKAIGSIFGKCMNKKCVCYPR-NH2; disulfide 6-27, 12-32, 16-34) yielded an IC50 [1] of 460 pM and an IC50 (Rat whole blood; [2]) of 2800 pM.
